{"source": "patent US20260034166A1", "about": "“HEPARIN COMPOSITIONS FOR TREATMENT OF LUNG DAMAGE AND METHODS OF USE THEREOF” (Atossa Therapeutics, Inc., priority 2022, published 2026)", "key": {"ciliary motility": {"tested_on": "ciliary motility", "details": "cited from earlier work"}, "[1]": {"details": "aqueous solution at physiologic pH; cited from earlier work"}, "[2]": {"experiment": "Treatment of chemotherapy-induced lung damage using nebulized heparin and N-acetylcysteine", "type": "in vivo, human", "protocol": "This example describes treatment of chemotherapy-induced lung damage using nebulized heparin and N-acetylcysteine. A patient with unresectable lung cancer, such as locally advanced or metastatic stage III/oligometastatic IV non-small cell lung carcinoma, who is undergoing chemotherapy therapy with bleomycin, carmustine, lomustine, busulfan, daunorubicin, doxorubicin, or idarubicin is administered nebulized enoxaparin via inhalation. The enoxaparin is purified to remove elemental impurities, as described in EXAMPLE 1, and formulated in water at a concentration of 100 mg/mL for a nebulized composition as described in EXAMPLE 2. A dose of either 0.5 mg enoxaparin per kg patient weight (mg/kg), 1 mg/kg, or 2 mg/kg of the aqueous enoxaparin formulation is nebulized and administered to the subject via inhalation every 12 hours for 14 days, followed by 14 days of no enoxaparin treatment. N-acetylcysteine is administered by inhalation via nebulization at 600 mg per dose 30 minutes after each dose of enoxaparin. The 28-day treatment cycle is repeated for up to 6 cycles in the absence of disease progression or unacceptable toxicity. The patient continues to receive best supportive care for the lung cancer (e.g., chemotherapy therapy) while undergoing enoxaparin treatment.\n(§1) Additionally, the enoxaparin therapy may reduce the recurrence of the lung cancer by slowing cancer progression through inhibition of mutagenic proliferation, adhesion, angiogenesis, migration, and invasion of cancer cells."}, "[3]": {"experiment": "Treatment of radiation-induced lung damage using nebulized enoxaparin and N-acetylcysteine", "type": "in vivo, human", "protocol": "This example describes treatment of radiation-induced lung damage using nebulized enoxaparin and N-acetylcysteine. A patient with unresectable lung cancer, such as locally advanced or metastatic stage III/oligometastatic IV non-small cell lung carcinoma, who has received radiation therapy is administered nebulized enoxaparin via inhalation. The enoxaparin is purified to remove elemental impurities, as described in EXAMPLE 1, and formulated in water at a concentration of 100 mg/mL for a nebulized composition as described in EXAMPLE 2. A dose of either 0.5 mg enoxaparin per kg patient weight (mg/kg), 1 mg/kg, or 2 mg/kg of the aqueous enoxaparin formulation is nebulized and administered to the subject via inhalation every 12 hours for 14 days, followed by 14 days of no enoxaparin treatment. N-acetylcysteine is administered by inhalation via nebulization at 600 mg per dose 30 minutes after each dose of enoxaparin. The 28-day treatment cycle begins 4-6 weeks after completion of radiation therapy, and the treatment cycle is repeated for up to 6 cycles in the absence of disease progression or unacceptable toxicity. The patient continues to receive best supportive care for the lung cancer (e.g., chemotherapy therapy) while undergoing enoxaparin treatment.\nas §1"}, "[4]": {"details": "same regimen, during chemotherapy"}, "[5]": {"details": "same regimen, after radiation therapy"}}}
{"compound": "2-alkyl-4-hydroxyquinolines [pyo compound]", "values": [{"measurement": "concentration producing ciliostasis / inhibiting ciliary motility", "setting": "ciliary motility; ciliostatic factors from Pseudomonas aeruginosa", "value": 50, "unit": "µg/mL"}]}
{"compound": "CCN(CC)/[N+]([O-])=N/O.CCNCC", "note": "[diethylamine/NO]", "values": [{"measurement": "time scale of NO release", "setting": "[1]", "value": "< 3", "unit": "min"}]}
{"compound": "NCCN(CCN)/[N+]([O-])=N/O", "note": "[diethylenetriamine/NO]", "values": [{"measurement": "time scale of NO release", "setting": "[1]", "value": "approximately 20 hours"}]}
{"compound": "enoxaparin", "values": [{"measurement": "development of chemotherapy-induced pneumonitis", "setting": "[2]; patient with unresectable lung cancer undergoing chemotherapy, 0.5, 1 or 2 mg/kg inhaled every 12 hours for 14 days, N-acetylcysteine 600 mg after each dose", "value": "treats, prevents, or slows the development"}, {"measurement": "airway inflammation", "setting": "[2]; [4]", "value": "decreases airway inflammation"}, {"measurement": "coagulation activation and pulmonary venous thromboembolism", "setting": "[2]; [4]", "value": "prevents coagulation activation and pulmonary venous thromboembolism"}, {"measurement": "release of inflammatory cytokines, such as IL-6", "setting": "[2]; [4]", "value": "inhibits release"}, {"measurement": "development of radiation-induced pneumonitis", "setting": "[3]; patient with unresectable lung cancer after radiation therapy, 0.5, 1 or 2 mg/kg inhaled every 12 hours for 14 days, N-acetylcysteine 600 mg after each dose", "value": "treats, prevents, or slows the development"}, {"measurement": "airway inflammation", "setting": "[3]; [5]", "value": "decreases airway inflammation"}, {"measurement": "coagulation activation and pulmonary venous thromboembolism", "setting": "[3]; [5]", "value": "prevents coagulation activation and pulmonary venous thromboembolism"}, {"measurement": "release of inflammatory cytokines, such as IL-6", "setting": "[3]; [5]", "value": "inhibits release"}]}
{"compound": "rhamnolipid", "values": [{"measurement": "effect on cilia", "setting": "ciliary motility; limited exposure of tracheal explants", "value": "resulted in ciliostasis"}]}
